# Where a name gives a salt, the structure may show the parent alone.
# What was measured:
# P. aeruginosa 26 = assay: In vitro antibacterial activity, two-fold agar-plate dilution method (MIC); assay type: cell-based; conditions: Pseudomonas aeruginosa, HI-agar, 10^6 viable cells per ml, 37° C., 20 hours, read-out: minimal inhibitory concentration (MIC)
# Description: Sodium 7-[2-allyloxyimino-2-(5-carboxylatoamino-1,2,4-thiadiazol-3-yl)acetamido]- 3-(1-pyridinio)methyl-3-cephem-4-carboxylate (syn isomer).
# In vitro antibacterial activity was determined by the two-fold agar-plate dilution method as described below.
# [1] = Dissolution test: velocity of dissolution of test samples after addition of distilled water at ambient temperature; assay type: physicochemical; conditions: reference sample without carbonic acid salt
# Description: As a comparison, the following reference samples were also tested.
# The velosity of dissolution of the test samples were observed after addition of distilled water into said test samples at ambient temperature,respectively.
Structure (SMILES),MIC (P. aeruginosa 26),Maximum concentration of this sample dissolved in water [1]
"C=CCO/N=C(\C(=O)NC1C(=O)N2C(C(=O)[O-])=C(C[n+]3ccccc3)CSC12)c1nsc(NC(=O)O)n1 (stereo not drawn) [Test salt, Sodium 7-[2-allyloxyimino-2-(5-carboxylatoamino-1,2,4-thiadiazol-3-yl)acetamido]-3-(1-pyridinio)methyl-3-cephem-4-carboxylate (syn isomer)]",0.39 mg/L,–
"CO/N=C(\C(=O)NC1C(=O)N2C(C(=O)[O-])=C(C[n+]3ccccc3)CSC12)c1nsc(N)n1 (stereo not drawn) [Reference Sample (4), 7-[2-(5-amino-1,2,4-thiadiazol-3-yl)-2-methoxyiminoacetamido]-3-(1-pyridinio)methyl-3-cephem-4-carboxylate sulfate (syn isomer)]",–,10 % (w/v)

# The next lines start with the values.
MIC (P. aeruginosa 26),Maximum concentration of this sample dissolved in water [1],Structure (SMILES)
–,4.07 % (w/v),"C=CCO/N=C(\C(=O)NC1C(=O)N2C(C(=O)[O-])=C(C[n+]3ccccc3)CSC12)c1nsc(N)n1 (stereo not drawn) [Reference Sample (1), 7-[2-allyloxyimino-2-(5-amino-1,2,4-thiadiazol-3-yl)acetamido]-3-(1-pyridinio)methyl-3-cephem-4-carboxylate (syn isomer)]"
–,2 % (w/v),"CO/N=C(\C(=O)NC1C(=O)N2C(C(=O)[O-])=C(C[n+]3ccccc3)CSC12)c1nsc(N)n1 (stereo not drawn) [Reference Sample (3), 7-[2-(5-amino-1,2,4-thiadiazol-3-yl)-2-methoxyiminoacetamido]-3-(1-pyridinio)methyl-3-cephem-4-carboxylate (syn isomer)]"
–,8.28 % (w/v),"C=CCO/N=C(\C(=O)NC1C(=O)N2C(C(=O)[O-])=C(C[n+]3ccccc3)CSC12)c1nsc(N)n1 (stereo not drawn) [Reference Sample (2), 7-[2-allyloxyimino-2-(5-amino-1,2,4-thiadiazol-3-yl)acetamido]-3-(1-pyridinio)methyl-3-cephem-4-carboxylate hydrochloride (syn isomer)]"

# — patent US5104866A, “Water-soluble antibiotic composition and water-soluble salts of cephem compounds” (Fujisawa Pharmaceutical Company, Ltd., priority 1987, dated 1992)
